Entries after “also recorded” stand apart in the source; their conditions may differ.
Legend:
IPBR-1 cells = assay: PBzR ligand effect on doxorubicin induced caspase activation in IPBR-1 cells; assay type: cell-based; details: induced but not uninduced IPBR-1 cells, dose-dependent
Description: Accordingly, the present invention provides the unexpected finding that peripheral benzodiazepine ligands may be distinguished on the basis of whether they preferentially alter apoptosis, and whether they preferentially alter a mitochondrial function. Data also indicate that benzodiazepine-related PBR ligands can act as effective anti-apoptotic agents, which may be of benefit in the treatment of certain neuropathologies and/or in chronic inflammatory conditions.

PBzR = target: T1, PBzR (Homo sapiens, UniProt P30536); assay: displacement of [3H]PK-11195 binding to the S11 PBzR overexpressing clone; details: read-out: IC50, displacement of [3H]PK-11195; 6 μg S11 protein per data point
T1 construct: expressed in transfected cells; host or cells: S11, clonal SH-SY5Y-derived stably transfected PBzR-overexpressing line
T1 sequence (P30536 whole entry): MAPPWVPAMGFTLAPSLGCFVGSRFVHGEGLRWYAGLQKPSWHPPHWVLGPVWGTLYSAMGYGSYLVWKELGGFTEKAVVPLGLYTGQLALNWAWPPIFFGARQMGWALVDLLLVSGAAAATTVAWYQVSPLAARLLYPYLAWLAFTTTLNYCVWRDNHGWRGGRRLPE
Experimental: Additional experiments were performed to further characterize the binding of ligand to PBzR.
The S11 cell line was used as a source of PBzR.

[1] = PK-11195 induced cell death, propidium iodide staining, vector control cells; assay type: cell-based; details: human, vector control cells (low Bcl-2 expression), read-out: percent of non-viable cells
Experimental: (§1) This provides apparent evidence for a functional link between PBR and Bcl-2. […] Cell viability was determined by propidium iodide staining cells and quantifying fluorescence with an Fmax™ plate reader (Molecular Devices, Sunnyvale, Calif.) according to the manufacturer's instructions.

[2] = PK-11195 induced cell death, propidium iodide staining, S11 cells; assay type: cell-based; details: human, read-out: percent of non-viable cells
Experimental: as §1

S11 mitochondria = assay: cytochrome C release upon calcium induced permeability transition; assay type: cell-based
[3] = target: T2, peripheral benzodiazepine receptor (PBR, PBzR) (Homo sapiens, UniProt P30536); assay: [3H]PK-11195 saturation binding to cell membranes
T2 construct: expressed in transfected cells; membranes
T2 sequence (P30536 whole entry): as above

[4] = test system: inducible PBzR overexpressing SH-SY5Y-derived cells (IPBR-1); assay: apoptogen-driven caspase activation in tetracycline-inducible PBzR overexpressing SH-SY5Y-derived cells; assay type: cell-based
Experimental: (§2) Caspases are apoptosis-activated proteases, and caspase induction in cells is often indicative that the cells are undergoing programmed cell death (apoptosis). Apoptosis can be induced by a variety of compounds, including etoposide. S11 or vector control cells were plated at 30,000 cells/well in 96 well plates and grown for 20 hours. […] At this time, media was aspirated and caspase activity was measured by addition of 23 uM DEVD, a peptide that is fluorescent when cleaved by caspase 3, in PBS along with 0.03% digitonin. Fluorescence was measured in an Fmax™ 96-well plate reader (Molecular Devices, Sunnyvale, Calif.) using a kinetic assay. Total number of cells was determined using propidium iodide staining and used to normalize for total number of cells in each well.
The effect of tetracycline induced PBzR overexpression on apoptogen-driven (C2-ceramide, 80 μM, 8 hrs) caspase activation was examined in a selected, oligoclonal tetracycline-inducible PBzR overexpressing SH-SY5Y-derived cell line (FIG. 20). […] The caspase response also correlated with cell viability determinations (FIG. 22), consistent with presumed caspase roles in apoptotic cascades. […] Western blot analysis of IPBR-1 mitochondrial fractions isolated on metrizamide gradients and normalized on the basis of mitochondrial ETC Complex IV activity (as described above) confirmed a dramatic increase in PBzR expression. No discernible change in Bcl-2 expression levels, however, accompanied the induction of PBzR overexpression.

[5] = test system: S11 cells and vector control cells; assay: caspase activation (DEVD cleavage) in S11 and vector control cells; assay type: cell-based
Experimental: as §2
Etoposide and ceramide treatments were as described above.

CN1C(=O)CN=C(c2ccc(Cl)cc2)c2cc(Cl)ccc21 [RO 05-4864, 4′chlorodiazepam]
effect on doxorubicin induced activation of caspase (IPBR-1 cells): protective effect against the doxorubicin induced activation of caspase
IC50 (PBzR): 36.8 nM

CCC(C)N(C)C(=O)c1cc2ccccc2c(-c2ccccc2Cl)n1 (stereo not drawn) [PK-11195, 1-(2-chlorophenyl)-N-methyl-N-(1-methylpropyl)-3-isoquinolinecarboxamide]
cytotoxicity at 24 h, 20 µM ([1]; 20 μM): ~10%
cytotoxicity at 24 h, 100 µM ([1]; 100 μM): ~40%
cytotoxicity at 24 h, 100 µM [2]: < 20%
release of cytochrome C from mitochondria (S11 mitochondria): caused a release of cytochrome C
Bmax (pmol/mg) ([3]; Jurkat Vector): Not detected
Bmax ([3]; S11): 43 pmol/mg
receptor concentration from saturation binding curves ([3]; S11 SY5Y clone / pooled over-expressors as worded): 25 pmol/mg
Bmax ([3]; SH-SY5Y Vector): 1.8 pmol/mg
binding maximum (BMAX) ([3]; native SY5Y cells): 1.8 pmol/mg
binding maximum (BMAX) ([3]; stable PBR expressing SY5Y cells): 25 ± 1.5 pmol/mg

C/C=C(/C)C(=O)O[C@H]1C(C)=C2[C@H]([C@@H]1OC(=O)CCCCCCC)[C@@](C)(OC(C)=O)C[C@H](OC(=O)CCC)[C@@]1(O)[C@H]2OC(=O)[C@@]1(C)O [thapsigargin]
caspase activation, induced versus uninduced cells ([4]; tetracycline-induced IPBR-1): no reduction in caspase activation

COc1cc([C@@H]2c3cc4c(cc3[C@@H](O[C@@H]3O[C@@H]5CO[C@@H](C)O[C@H]5[C@H](O)[C@H]3O)[C@H]3COC(=O)[C@H]23)OCO4)cc(OC)c1O [etoposide]
caspase activation, S11 cells versus vector controls ([5]; etoposide 2-6 μM, six hours): caspase activation occurred at a higher rate in S11 cells than in vector controls; also recorded: greater activation of caspase in S11 cells than in vector controls

COc1cccc2c1C(=O)c1c(O)c3c(c(O)c1C2=O)C[C@@](O)(C(=O)CO)C[C@@H]3O[C@H]1C[C@H](N)[C@H](O)[C@H](C)O1 [doxorubicin]
caspase activation, induced versus uninduced cells ([4]; IPBR-1, 4 μM, 8 hrs): moderated the degree of caspase activation

Nc1c[n+](N2CCOCC2)no1.[Cl-] [SIN-1, 3-morpholinosydnonimine, HCl]
caspase activation, induced versus uninduced cells ([4]; IPBR-1, 100-400 μM): resistance to caspase activation

CCCCCCCCCCCCC/C=C/[C@@H](O)[C@H](CO)NC(C)=O [C2-ceramide]
caspase activation, induced versus uninduced cells ([4]; oligoclonal tetracycline-inducible line, 80 μM, 8 hrs): resistance to ceramide-stimulated caspase activation
caspase activation, S11 cells versus vector controls ([5]; concentrations of 80 and 100 μM): much greater activation of caspase in vector control cells than in the S11 cells
